Assay results taken from patent publication US8399422B2, “Compositions for transfection of oligonucleotides active for gene silencing and their biological and therapeutical applications” (Polyplus-Transfection, priority 2006, dated 2013).

Experiments:
[1] = tested on: luciferase gene (pGL3) stably expressed by A549-GL3Luc cells; assay: Reverse transfection in 96-well plate, luciferase silencing in A549-GL3Luc cells; format: cell-based, human; conditions: transfected with liposomal MONI/DOPE (½ mM), 48 h
Procedure: GL3Luc siRNA diluted in 50 μl of serum free medium were complexed (in 96-well tissue culture plate format, n=6) for 5 minutes with 1 μl of formulation composed of MONI/DOPE in water (1 mM/2 mM). Then, 10,000 A549-GL3Luc cells, stably expressing the luciferase gene, in 125 μl of medium containing serum were added per well. Luciferase gene expression was measured after 48 h incubation period. As unspecific siRNA control, siRNA matching the GL2 luciferase sequence were transfected in the same conditions. Luciferase gene expression was measured after 48 h incubation period and the luciferase activity was expressed as Relative Light Unit (RLU) normalized by the content of protein in the cell lysates (mg of protein). GL3 luciferase silencing efficiency (FIG. 3B) was calculated from the endogenous luciferase level of untransfected A549-GL3Luc cells normalized by the content of protein in the cell lysates.
Complexes of siRNA/transfection reagent were prepared first. […]
Luciferase gene expression was measured using a commercial kit (Promega, France). […] The luciferase assay was assessed with 5 μl of lysate after injection of 100 μl of luciferin solution. The luminescence (RLU) was monitored with an integration over 10 seconds with a luminometer (LB960, Berthold, France). Results are expressed as light units integrated over 10 seconds (RLU), per mg of cell protein using the BCA assay (Pierce, France). […]

[2] = tested on: luciferase gene (pGL3) stably expressed by A549-GL3Luc cells; assay: Luciferase gene (pGL3) silencing by GL3Luc siRNA transfection of A549-GL3Luc cells; format: cell-based, human; conditions: 48 h
Procedure: A549 (human lung carcinoma, ATCC No CCL-185) cells stably expressing the GL3 luciferase (Photinus pyralis luciferase under the control of SV40 elements) were obtained after stable transfection of pGL3Luc plasmid (Clontech). A549-GL3Luc cells were grown in RPMI-1640 and supplemented with 10% fetal bovine serum, 2 mM glutamax, 100 units/ml penicillin, 100 μg/ml streptomycin and 0.8 μg/ml G418 (Promega). All the cells were maintained at 37° C. in a 5% CO2 humidified atmosphere.
One day before transfection, 2.5×10^4 cells were seeded in 24-well tissue culture plate in 1 ml fresh complete medium containing 10% FBS. Before transfection, complexes of siRNA/transfection reagent were prepared. The desired amount of siRNAs was diluted in 100 μl of serum-free medium. The solution was mixed with a Vortex for 10 seconds. Then, 0.5 μl to 3 μl of amphiphilic molecules-based formulations were added to siRNA solution. The final mixture was mixed with a Vortex for 10 seconds, and left for 10 minutes at room temperature. Then, 100 μl of complexes solution were added per well and the plates were incubated at 37° C. […]
For all transfection protocols, the plates were further incubated at 37° C. for 48 h.
Luciferase gene expression was measured using a commercial kit (Promega, France). After removing the complete medium, three washings with 1 ml of PBS solution were made. Then, 100 μl of 1× lysis buffer were added per well, and the plate was incubated at room temperature for 30 minutes. The lysates were collected and centrifuged at 14,000 g for 5 minutes. The luciferase assay was assessed with 5 μl of lysate after injection of 100 μl of luciferin solution. The luminescence (RLU) was monitored with an integration over 10 seconds with a luminometer (LB960, Berthold, France). Results are expressed as light units integrated over 10 seconds (RLU), per mg of cell protein using the BCA assay (Pierce, France).
As a target model of endogenous reporter gene, A549 cells stably expressing the GL3 luciferase were used (Photinus pyralis luciferase under the control of SV40 elements). A well defined and conventional siRNA, chemically produced, and sequence-specific GL3Luc siRNA of SEQ ID No 1 and 2 composed of a short dsRNA of 19 nucleotides matching the GL3Luc mRNA and comprising 3′-overhangs of 2 deoxyribonucleotides (dT) was used for the transfection experiments. A formulation of cationic amphiphile MONI at 1 mM and combined with neutral phospholipid DOPE at 1 mM in ethanol was prepared. SiRNA diluted in serum-free medium (100 μl) was then complexed with 2 μl of the formulation of MONI/DOPE (1 mM/1 mM in ethanol). The resulting solution of transfection complexes was added on the cells growing in medium containing serum and cells were finally exposed to siRNA concentration range from 100 to 2000 pM (FIG. 1). The silencing efficiency was determined 48 h post-transfection by measuring the luciferase activity with a standard luminescence assay normalized by the protein content of cell lysates. The luciferase activity (expressed as RLU/mg of protein) was inhibited up to 90% when the transfection was performed with 2000 pM of siRNA.
Formulations composed of amphiphilic cationic molecule/DOPE (1 mM/2 mM in 10% ethanol and water) were used to complex siRNA and transfect A549-GL3Luc cells. Luciferase gene expression was measured after 48 h incubation period. Experiments were made in triplicates and the GL3 luciferase silencing efficiency was calculated from the luciferase level of transfected cells with a control GL2-Luc siRNA and normalized by the content of protein in the cell lysates.

## GL2Luc siRNA: siRNA duplex SEQ ID No 3 and 4 matching the GL2 luciferase sequence, unspecific control (chain 1 CGUACGCGGAAUACUUCGATT; chain 2 TTGCAUGCGCCUUAUGAAGCU; chemistry not fully specified; one strand is listed 3' to 5') [reference compound]
[1]
  luciferase inhibition with unrelated GL2Luc siRNA, reverse transfection: absence of luciferase inhibition
[2]; transfected with MONBI 1 mM/DOPE 2 mM in ethanol, same conditions
  luciferase level with unrelated GL2Luc siRNA: the luciferase level was not affected
[2]; transfected with MONI/DOPE 1 mM/1 mM in ethanol, same conditions (100 to 2000 pM)
  effect of unrelated GL2Luc siRNA on luciferase activity: absence of effect on the luciferase activity
